In BindingDB's records for doi:10.1021/jm00045a017 (National Taiwan University, 1994):

Assay: binding affinity against sigma Opioid receptor was measured by using labeled ligand [3H]-SKF- 10,047 (1 nM)

Which Ki does the source give for `CN1CC[C@]23c4cccc(O)c4O[C@H]2C(=O)CC[C@H]3C1` [(4aR,7aR,12bS)-9-Hydroxy-3-methyl-2,3,4,4a,5,6-hexahydro-1H-8-oxa-3-aza-benzo[d]fluoren-7-one] here?
The Ki was 2.09 µM.

Which Ki does the source give for `Oc1cccc2c1O[C@H]1[C@@H](O)CC[C@H]3CN(CC4CC4)CC[C@@]231` [(4aR,7S,7aR,12bS)-3-Cyclopropylmethyl-2,3,4,4a,5,6,7,7a-octahydro-1H-8-oxa-3-aza-benzo[d]fluorene-7,9-diol] here?
The Ki was 0.58 µM.

Which Ki does the source give for `O=C1CC[C@H]2CN(CC3CC3)CC[C@@]23c2cccc(O)c2O[C@@H]13` [(4aR,7aR,12bS)-3-Cyclopropylmethyl-9-hydroxy-2,3,4,4a,5,6-hexahydro-1H-8-oxa-3-aza-benzo[d]fluoren-7-one] here?
The Ki was 0.71 µM.

For `COc1cccc2c1O[C@H]1C(=O)CC[C@H]3CN(CC4CC4)CC[C@@]231` [(4aR,7aR,12bS)-3-Cyclopropylmethyl-9-methoxy-2,3,4,4a,5,6-hexahydro-1H-8-oxa-3-aza-benzo[d]fluoren-7-one], which Ki is on record?
Its Ki is 0.44 µM.

For `COc1cccc2c1O[C@H]1[C@@H](O)CC[C@H]3CN(CC4CC4)CC[C@@]231` [(4aR,7S,7aR,12bS)-3-Cyclopropylmethyl-9-methoxy-2,3,4,4a,5,6,7,7a-octahydro-1H-8-oxa-3-aza-benzo[d]fluoren-7-ol], which Ki is on record?
Its Ki is 0.41 µM.

With `Oc1cccc2c1O[C@H]1[C@H](O)CC[C@@H]3CN(CC4CC4)CC[C@@]231` [(4aS,7R,7aR,12bS)-3-Cyclopropylmethyl-2,3,4,4a,5,6,7,7a-octahydro-1H-8-oxa-3-aza-benzo[d]fluorene-7,9-diol] as the compound, how does the Ki read?
Its Ki is 0.3 µM.

With `Oc1cccc2c1O[C@H]1CCC[C@H]3CN(CC4CC4)CC[C@@]231` [(-)-trans-3-Cyclopropylmethyl-2,3,4,4aalpha,5,6,7,7aalpha-octahydro-1H-benzo[4,5]furo[3,2-e]isoquinolin-9-ol] as the compound, how does the Ki read?
The Ki was 0.021 µM.

Which Ki does the source give for `O=C1CC[C@@H]2CN(CC3CC3)CC[C@@]23c2cccc(O)c2O[C@@H]13` [(4aS,7aR,12bS)-3-Cyclopropylmethyl-9-hydroxy-2,3,4,4a,5,6-hexahydro-1H-8-oxa-3-aza-benzo[d]fluoren-7-one] here?
Its Ki is 0.31 µM.
